Molecular target: hNav1.7 (Homo sapiens, UniProt Q15858)
Assay: cell-based
Format: cell-based
Conditions: for IC50: Table 12, PatchXpress, tonic block, read-out: PX hNav1.7 Tonic IC50; for Nav1.4/Nav1.7 / Nav1.5/Nav1.7: ratio of PX tonic IC50 values, Table 11

hNav1.7, sequence (Q15858 whole entry): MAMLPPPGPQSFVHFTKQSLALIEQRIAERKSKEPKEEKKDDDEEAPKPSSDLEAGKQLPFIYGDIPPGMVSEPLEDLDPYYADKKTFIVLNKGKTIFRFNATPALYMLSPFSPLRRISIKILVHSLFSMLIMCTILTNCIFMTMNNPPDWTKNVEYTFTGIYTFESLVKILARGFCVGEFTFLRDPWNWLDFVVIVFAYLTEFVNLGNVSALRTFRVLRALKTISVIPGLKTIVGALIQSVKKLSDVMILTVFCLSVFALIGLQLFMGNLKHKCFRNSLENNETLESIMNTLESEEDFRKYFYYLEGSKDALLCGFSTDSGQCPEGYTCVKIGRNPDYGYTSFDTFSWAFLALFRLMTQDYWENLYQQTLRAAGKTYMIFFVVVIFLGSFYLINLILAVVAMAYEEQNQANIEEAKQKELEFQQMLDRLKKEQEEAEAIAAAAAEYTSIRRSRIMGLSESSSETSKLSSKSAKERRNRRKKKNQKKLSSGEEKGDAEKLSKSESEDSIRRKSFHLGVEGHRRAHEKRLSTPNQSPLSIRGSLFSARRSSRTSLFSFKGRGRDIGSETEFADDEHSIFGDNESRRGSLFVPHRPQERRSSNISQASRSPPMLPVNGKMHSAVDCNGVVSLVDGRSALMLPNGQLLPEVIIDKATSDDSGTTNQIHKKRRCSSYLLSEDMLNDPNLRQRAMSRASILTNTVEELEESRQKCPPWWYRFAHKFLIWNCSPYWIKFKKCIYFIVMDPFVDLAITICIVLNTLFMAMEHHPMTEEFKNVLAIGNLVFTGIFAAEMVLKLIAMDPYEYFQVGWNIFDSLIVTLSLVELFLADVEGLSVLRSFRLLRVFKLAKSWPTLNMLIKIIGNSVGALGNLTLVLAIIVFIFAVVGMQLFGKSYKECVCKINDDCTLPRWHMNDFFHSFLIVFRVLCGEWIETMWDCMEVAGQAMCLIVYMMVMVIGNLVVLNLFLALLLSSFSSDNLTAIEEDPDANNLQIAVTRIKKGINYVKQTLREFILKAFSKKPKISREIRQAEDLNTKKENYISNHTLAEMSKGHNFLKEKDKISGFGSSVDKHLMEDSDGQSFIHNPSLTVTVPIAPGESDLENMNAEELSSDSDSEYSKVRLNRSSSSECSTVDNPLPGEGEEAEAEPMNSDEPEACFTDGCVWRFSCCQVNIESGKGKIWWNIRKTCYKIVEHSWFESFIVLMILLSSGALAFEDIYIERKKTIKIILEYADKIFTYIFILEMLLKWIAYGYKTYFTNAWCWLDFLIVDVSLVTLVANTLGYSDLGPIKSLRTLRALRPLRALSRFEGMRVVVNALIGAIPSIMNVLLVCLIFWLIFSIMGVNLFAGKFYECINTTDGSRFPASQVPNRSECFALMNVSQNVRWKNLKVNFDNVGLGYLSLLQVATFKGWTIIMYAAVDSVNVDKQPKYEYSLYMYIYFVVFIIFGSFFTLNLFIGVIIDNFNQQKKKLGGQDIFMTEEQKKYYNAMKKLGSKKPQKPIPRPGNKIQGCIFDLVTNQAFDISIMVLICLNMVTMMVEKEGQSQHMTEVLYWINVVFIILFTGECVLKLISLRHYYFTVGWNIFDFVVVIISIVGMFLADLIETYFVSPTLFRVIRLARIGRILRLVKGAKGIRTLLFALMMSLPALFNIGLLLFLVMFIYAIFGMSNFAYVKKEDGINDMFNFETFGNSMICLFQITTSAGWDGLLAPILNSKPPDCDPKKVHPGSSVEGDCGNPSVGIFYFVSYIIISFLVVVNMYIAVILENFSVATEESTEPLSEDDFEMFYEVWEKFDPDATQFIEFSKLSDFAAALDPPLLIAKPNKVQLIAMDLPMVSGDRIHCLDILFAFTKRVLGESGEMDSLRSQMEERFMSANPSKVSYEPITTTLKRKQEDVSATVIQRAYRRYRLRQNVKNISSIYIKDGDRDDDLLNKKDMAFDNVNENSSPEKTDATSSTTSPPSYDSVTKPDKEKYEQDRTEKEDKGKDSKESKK

SMILES: C#CC[C@H](N)C(=O)N[C@@H](Cc1ccc(O)cc1)C(=O)N[C@H]1CSSC[C@@H]2NC(=O)[C@@H]3CSSC[C@@H](C(=O)N[C@@H](CCCNC(=N)N)C(=O)N[C@@H](CCCCN)C(=O)N[C@@H](CCC(=O)O)C(=O)N[C@H](C(N)=O)[C@@H](C)CC)NC(=O)[C@H](Cc4c[nH]c5ccccc45)NC(=O)[C@H](CC(C)C)NC(=O)[C@H](CCCCN)NC(=O)[C@H](CSSC[C@H](NC(=O)[C@H]([C@@H](C)O)NC(=O)[C@H](Cc4c[nH]c5ccccc45)NC(=O)[C@H](CCCC)NC(=O)[C@H](Cc4c[nH]c5ccccc45)NC(=O)[C@H](CCCCN)NC(=O)[C@H](CCC(N)=O)NC1=O)C(=O)N[C@@H](CC(=O)O)C(=O)N[C@@H](CO)C(=O)N[C@@H](CCCCN)C(=O)N[C@@H](CCCNC(=N)N)C(=O)N[C@@H](C)C(=O)N3)NC(=O)[C@H](CCCNC(=N)N)NC(=O)[C@H](C)NC(=O)CNC(=O)[C@H](CCC(=O)O)NC2=O [compound 703]
- IC50: > 1000 nM

SMILES: CCCC[C@@H]1NC(=O)[C@H](Cc2c[nH]c3ccccc23)NC(=O)[C@H](CCCCN)NC(=O)[C@H](CCC(N)=O)NC(=O)[C@@H](NC(=O)[C@H](Cc2ccc(O)cc2)NC(=O)[C@H](N)CC(C)C)CSSC[C@@H]2NC(=O)[C@@H]3CSSC[C@@H](C(=O)N[C@@H](CCCNC(=N)N)C(=O)N[C@@H](CCCCN)C(=O)N[C@H](C(=O)N[C@H](C(N)=O)[C@@H](C)CC)[C@@H](C)CC)NC(=O)[C@H](Cc4c[nH]c5ccccc45)NC(=O)[C@H](CC(C)C)NC(=O)[C@H](CCCCN)NC(=O)[C@H](CSSC[C@H](NC(=O)[C@H]([C@@H](C)O)NC(=O)[C@H](Cc4c[nH]c5ccccc45)NC1=O)C(=O)N[C@@H](CC(=O)O)C(=O)N[C@@H](CO)C(=O)N[C@@H](CCCCN)C(=O)N[C@@H](CCCNC(=N)N)C(=O)N[C@@H](C)C(=O)N3)NC(=O)[C@H](CCCNC(=N)N)NC(=O)[C@H](CC(C)C)NC(=O)CNC(=O)[C@H](CCC(=O)O)NC2=O [compound 373]
- Nav1.4/Nav1.7: 190
- Nav1.5/Nav1.7: 2704

SMILES: CCCC[C@@H]1NC(=O)[C@H](Cc2c[nH]c3ccccc23)NC(=O)[C@H](CCCCN)NC(=O)[C@H](CCC(N)=O)NC(=O)[C@@H](NC(=O)[C@H](Cc2ccc(O)cc2)NC(=O)[C@@H](N)CC#N)CSSC[C@@H]2NC(=O)[C@@H]3CSSC[C@@H](C(=O)N[C@@H](CCCNC(=N)N)C(=O)N[C@@H](CCCCN)C(=O)N[C@@H](CCC(=O)O)C(=O)N[C@H](C(N)=O)[C@@H](C)CC)NC(=O)[C@H](Cc4c[nH]c5ccccc45)NC(=O)[C@H](CC(C)C)NC(=O)[C@H](CCCCN)NC(=O)[C@H](CSSC[C@H](NC(=O)[C@H]([C@@H](C)O)NC(=O)[C@H](Cc4c[nH]c5ccccc45)NC1=O)C(=O)N[C@@H](CC(=O)O)C(=O)N[C@@H](CO)C(=O)N[C@@H](CCCCN)C(=O)N[C@@H](CCCNC(=N)N)C(=O)N[C@@H](CCCCNC(=O)CCOCCOCCOCCOCCOCCOCCOCCOCCOCCOCCOCCOCCN)C(=O)N3)NC(=O)[C@H](CCCNC(=N)N)NC(=O)[C@H](CC(C)C)NC(=O)CNC(=O)[C@H](CCC(=O)O)NC2=O [compound 455]
- Nav1.4/Nav1.7: 86
- Nav1.5/Nav1.7: 1101

SMILES: C#CC[C@H](N)C(=O)N[C@@H](Cc1ccc(O)cc1)C(=O)N[C@H]1CSSC[C@@H]2NC(=O)[C@@H]3CSSC[C@@H](C(=O)N[C@@H](CCCNC(=N)N)C(=O)N[C@@H](CCCCN)C(=O)N[C@@H](CCC(=O)O)C(=O)N[C@H](C(N)=O)[C@@H](C)CC)NC(=O)[C@H](Cc4cccc5ccccc45)NC(=O)[C@H](CC(C)C)NC(=O)[C@H](CCCCN)NC(=O)[C@H](CSSC[C@H](NC(=O)[C@H]([C@@H](C)O)NC(=O)[C@H](Cc4c[nH]c5ccccc45)NC(=O)[C@H](CCCC)NC(=O)[C@H](Cc4c[nH]c5ccccc45)NC(=O)[C@H](CCCCN)NC(=O)[C@H](CCC(N)=O)NC1=O)C(=O)N[C@@H](CC(=O)O)C(=O)N[C@@H](CO)C(=O)N[C@@H](CCCCN)C(=O)N[C@@H](CCCNC(=N)N)C(=O)N[C@@H](C)C(=O)N3)NC(=O)[C@H](CCCNC(=N)N)NC(=O)[C@H](CC(C)C)NC(=O)CNC(=O)[C@H](CCC(=O)O)NC2=O [compound 851]
- IC50: 32 nM
